From article PMC3145672, “X-Ray Structure Reveals a New Class and Provides Insight into Evolution of Alkaline Phosphatases” (PLoS ONE, 2011) come the findings set out here.

For the assay, the target named is T1, SPAP (Sphingomonas sp., UniProt A1YYW7).
T1 construct: gene phoK; recombinant in E. coli, Ni-NTA purified; precursor 559 residues, predicted signal peptide 1-19; residues 31-556 visible in crystal; active monomer, 58 kD by SEC
T1 sequence (A1YYW7 20-559): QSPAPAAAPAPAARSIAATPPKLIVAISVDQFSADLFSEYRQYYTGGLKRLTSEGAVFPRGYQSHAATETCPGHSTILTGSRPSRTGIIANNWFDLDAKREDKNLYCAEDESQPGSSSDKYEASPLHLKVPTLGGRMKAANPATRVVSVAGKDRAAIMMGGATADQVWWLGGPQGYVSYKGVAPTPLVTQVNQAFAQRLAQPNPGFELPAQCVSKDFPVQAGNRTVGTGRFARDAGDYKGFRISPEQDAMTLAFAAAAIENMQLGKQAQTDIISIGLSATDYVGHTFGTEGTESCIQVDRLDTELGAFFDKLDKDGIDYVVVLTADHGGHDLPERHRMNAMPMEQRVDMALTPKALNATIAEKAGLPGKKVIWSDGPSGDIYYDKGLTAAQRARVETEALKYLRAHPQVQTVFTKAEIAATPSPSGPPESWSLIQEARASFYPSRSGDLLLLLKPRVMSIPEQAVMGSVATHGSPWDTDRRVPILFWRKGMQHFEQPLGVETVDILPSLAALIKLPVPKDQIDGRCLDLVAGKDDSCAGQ
Put plainly: release of pNP at […] nm. The format is biochemical. Conditions: pH 8.5, room temperature; size exclusion chromatography fraction.

As to `O=[N+]([O-])c1ccc(OP(=O)(O)O)cc1` [pNPP], the “release of pNP at 405 nm” value is listed as “Catalytic activity of eluted SPAP fraction was checked, at room temperature”.
